Assay results taken from patent US10772911B2, “Cell free compositions for cellular restoration and methods of making and using same” (Advanced ReGen Medical Technologies, LLC, priority 2013, dated 2020).

Columns and labels:
Type in all cases: cell-based
restored cells = test: cell morphology in transwell co-culture; settings: co-cultured in the presence of 5 μM manumycin vs absence
Excerpt: (§1) Receiver cell samples (i.e., R1, R2, and R3) were individually paired with donor cell samples (i.e., D1, D2, and D3) and the pairs co-cultured in a transwell culture cell for four weeks. The morphology of the cells was studied at 2 weeks into the co-culture and at 4 weeks of co-culture. Gene expression arrays, protein arrays, and telomere length experiments compared freshly defrosted cells from the collection tubes (referred to as the baseline donor cell sample or baseline receiver cell sample) with cells at the 4-week study endpoint (referred to as restored cell samples).
The nature of the soluble particles passing through the permeable membrane in the transwell co-culture experiments was investigated. Specifically, transwell co-culture experiments were carried out in the presence or absence of manumycin. Manumycin, -[(1S,5S,6R)-5-hydroxy-5-[(1E,3E,5E)-7-[(2-hydroxy-5-oxo-1-cyclopenten-1-yl)amino]-7-oxo-1,3,5-heptatrien-1-yl]-2-oxo-7-oxabicyclo[4.1.0]hept-3-en-3-yl]-2E,4E,6R-trimethyl, 2,4-decadienamide, is an antibiotic that acts a potent and selective farnesytransferase inhibitor. Mannumycin is also known to inhibit the release of exosomes. […] Further support for the role of exosome/microvesicles in mediating the disclosed cellular restoration process is shown in FIG. 12.

senescence-related genes = test: quantitative PCR gene array of senescence-related genes; settings: co-cultured in the presence of manumycin vs absence
Excerpt: as §1
(§2) Protein array analyses were carried out using conditioned media from the baseline donor cell sample or baseline receiver cell sample. The conditioned media was mixed with like cellular protein extracts and applied to the custom-designed arrays which consisted of antibody probes for 68 factors linked to cellular aging and senescence, collectively referred to as the senescence-associated secretory factors (SASF). Quantitative PCR gene array analyses were carried out by extracting RNA from the baseline samples or the co-cultured donor and receiver samples. The data presented represents the average metric determined for either the baseline donor cell sample, the baseline receiver cell sample, or the restored cell sample. […]

[1] = tested on: senescence-associated secretory factors (SASF); test: protein array of senescence-associated secretory factors; settings: co-cultured in the presence of manumycin vs absence; FIG. 11
Excerpt: as §1, §2

telomere length = telomere length of restored cell sample; settings: pair R1-D1, presence vs absence of manumycin; FIG. 12
Excerpt: In an embodiment, the donor cell sample, receiver cell sample, or both are subjected to at least one analytical technique to characterize the quality of the cell sample. Herein, the “quality” of the cell sample refers to factors used to characterize the cellular health of the sample and includes parameters such as the number and types of cells present in the sample; the ratio of senescent to non-senescent cells in the sample; the extent of expression of a group of genetic and/or protein biomarkers; the average telomere length of the cells in the sample; and the status of the innate immune function of the cells in the sample. Telomere length may be determined using any suitable methodology, for example, terminal restriction fragment (TRF) analysis. Innate immune function may be evaluated using any suitable methodology such as the ^51Cr cytotoxicity release natural killer cell assay. The donor cell sample quality may be an assessment of the ability of the cells in the sample to improve and/or restore one or more cellular functions of the cells in the receiver cell sample.
Receiver cell samples (i.e., R1, R2, and R3) were individually paired with donor cell samples (i.e., D1, D2, and D3) and the pairs co-cultured in a transwell culture cell for four weeks. The morphology of the cells was studied at 2 weeks into the co-culture and at 4 weeks of co-culture. […]

For `CCCC[C@@H](C)/C=C(C)/C=C(\C)C(=O)NC1=C[C@@](O)(/C=C/C=C/C=C/C(=O)NC2=C(O)CCC2=O)[C@@H]2O[C@@H]2C1=O` [manumycin, -[(1S,5S,6R)-5-hydroxy-5-[(1E,3E,5E)-7-[(2-hydroxy-5-oxo-1-cyclopenten-1-yl)amino]-7-oxo-1,3,5-heptatrien-1-yl]-2-oxo-7-oxabicyclo[4.1.0]hept-3-en-3-yl]-2E,4E,6R-trimethyl, 2,4-decadienamide], the “morphology of restored cells” value (restored cells) was “less robust morphology”, the “gene expression of restored cell samples” value (senescence-related genes) was “did not display a change in expression levels similar to those observed in the absence of manumycin” and the “protein expression levels of restored cell samples” value [1] was “elevated levels of all proteins investigated”. The “telomere length of restored cell sample” value (telomere length) was “decreased”.
